{"source": "patent US20050038473A1", "about": "“Device and method for the treatment of pilosebaceous disorders” (priority 2003, published 2005)", "origin": "cited, not measured here", "key": {"androgen receptors": {"target": "T1, androgen receptors (Homo sapiens, UniProt P10275)", "T1 sequence (P10275 1-920)": "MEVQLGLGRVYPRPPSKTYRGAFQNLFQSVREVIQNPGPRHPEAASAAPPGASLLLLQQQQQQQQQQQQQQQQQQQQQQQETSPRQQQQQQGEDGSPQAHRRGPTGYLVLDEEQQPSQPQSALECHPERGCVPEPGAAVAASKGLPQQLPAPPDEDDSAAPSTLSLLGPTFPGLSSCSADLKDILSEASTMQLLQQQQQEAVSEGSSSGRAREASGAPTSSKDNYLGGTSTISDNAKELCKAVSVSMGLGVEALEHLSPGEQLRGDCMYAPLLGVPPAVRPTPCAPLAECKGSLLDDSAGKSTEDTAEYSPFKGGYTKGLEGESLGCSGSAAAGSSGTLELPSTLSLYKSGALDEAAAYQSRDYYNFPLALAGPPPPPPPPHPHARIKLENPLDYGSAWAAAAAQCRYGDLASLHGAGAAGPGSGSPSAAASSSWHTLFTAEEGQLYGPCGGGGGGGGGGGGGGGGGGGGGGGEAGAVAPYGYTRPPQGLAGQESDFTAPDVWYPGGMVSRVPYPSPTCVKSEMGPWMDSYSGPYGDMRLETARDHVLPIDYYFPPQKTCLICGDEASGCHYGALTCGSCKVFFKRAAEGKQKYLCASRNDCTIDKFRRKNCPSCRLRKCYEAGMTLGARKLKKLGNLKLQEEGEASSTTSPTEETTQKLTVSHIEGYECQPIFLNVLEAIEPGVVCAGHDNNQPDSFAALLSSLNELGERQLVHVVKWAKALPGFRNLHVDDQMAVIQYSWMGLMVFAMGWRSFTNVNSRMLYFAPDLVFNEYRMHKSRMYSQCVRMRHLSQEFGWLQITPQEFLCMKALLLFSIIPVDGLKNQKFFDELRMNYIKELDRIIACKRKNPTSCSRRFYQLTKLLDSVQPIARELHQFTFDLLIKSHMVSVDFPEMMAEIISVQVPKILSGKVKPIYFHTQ", "settings": "compared with testosterone"}, "idiopathic hirsutism": {"tested_on": "idiopathic hirsutism", "settings": "women with idiopathic hirsutism taking flutamide"}, "[1]": {"tested_on": "in-vitro hair follicle cultures", "settings": "5-alpha-reductase blocker, versus finasteride"}}, "note": "Like-named read-outs stand apart in the source and are kept apart here.", "data": [{"smiles": "CN1C(=S)N(c2ccc(C#N)c(C(F)(F)F)c2)C(=O)C1(C)C", "note": "[RU 56187]", "values": [{"measurement": "affinity for androgen receptors relative to the affinity of testosterone", "setting": "androgen receptors", "result": "three times higher"}]}, {"smiles": "C=C1/C(=C\\C=C2/CCC[C@]3(C)[C@@H]([C@H](C)CCCC(C)(C)O)CC[C@@H]23)C[C@@H](O)C[C@@H]1O", "note": "[1,25-dihydroxyvitamin D3]", "values": [{"measurement": "effect on hair and hair follicle growth", "setting": "hair follicles; high concentration (100 nM) and after longer contact", "result": "inhibits"}, {"measurement": "effect on hair and hair follicle growth", "setting": "hair follicles; low concentration (1-10 nM), direct contact with hair follicles", "result": "stimulates"}]}, {"smiles": "CC1(C)C(=O)N(c2ccc(C#N)c(C(F)(F)F)c2)C(=S)N1CCCCO", "note": "[RU 59063]", "values": [{"measurement": "affinity for androgen receptors relative to the affinity of testosterone", "setting": "androgen receptors", "result": "three times higher"}]}, {"smiles": "CC(C)C(=O)Nc1ccc([N+](=O)[O-])c(C(F)(F)F)c1", "note": "[flutamide]", "values": [{"measurement": "disturbance of plasma levels of gonadotropins, testosterone, androstenedione or dehydroepiandrostenedione", "setting": "idiopathic hirsutism", "result": "without disturbance"}]}, {"smiles": "CCN(CC)C(=O)[C@H]1CC[C@H]2[C@@H]3CC[C@H]4N(C)C(=O)CC[C@]4(C)[C@H]3CC[C@]12C", "note": "[17-beta-N,N-diethylcarbamyl-4-methyl-4-aza-5-androstan-3-one]", "values": [{"measurement": "effect on in-vitro hair follicle cultures compared with finasteride", "setting": "[1]", "result": "greater effect"}]}]}
